This experiment has as its target T1, NS3 protease (dengue virus type 3, UniProt A0A0B5JFF1).
T1 sequence (A0A0B5JFF1 whole entry): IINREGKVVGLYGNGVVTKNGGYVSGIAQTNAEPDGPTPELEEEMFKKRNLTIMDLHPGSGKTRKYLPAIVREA
Briefly: Functional biochemical assay to identify treatments for viral infectious disease that targets Dengue virus type 3 NS2B-NS3 protease. Utilizing a direct enzyme activity measurement method, reading the fluorescence intensity is used to characterize the relative potency of inhibitors as IC50. On the set-up: species or system Philippines/H87/1956.

Several values for one entry are separate records, joined by “and”; a condition that tells them apart may be missing. Identical values can stand only once.

As for `N=C(N)NCCC[C@H](NC(=O)[C@H](Cc1ccc(CN)cc1)NC(=O)c1ccccc1)B(O)O`, the IC50 (as a rule, the midpoint of a concentration-inhibition curve) is 0.819 µM and 0.784 µM and 0.98 µM. The result for `O=C(Nc1cc2c(c(C3=CCOCC3)c1)CNC2)c1cc(F)cc2[nH]ncc12` reads 8.47 µM. The result for `Clc1cc([C@@H]2C[C@H]2c2cccc(C3CCNCC3)c2)c2cn[nH]c2c1` reads 6.45 µM; that for `C=CC[C@H]1NCc2cc(NC(=O)c3cc(Cl)cc4[nH]ncc34)ccc21`, 68.2 µM; that for `O=C(Nc1ccc2c(c1)CNC2)c1cc(F)c2[nH]ccc2c1`, over 99.5 µM.

Compound `O=C(Nc1cc(Br)c2c(c1)CNC2)c1cc(F)cc2[nH]ncc12` yielded an IC50 of 15 µM. The result for `O=C(Nc1ccc2c(c1)CNC2)c1ccc2[nH]cc(C3CCNCC3)c2c1` reads 29.2 µM; that for `NCc1ccc(-c2csc3cc(C(=O)Nc4ccc5c(c4)CNC5)ccc23)cc1`, 31.6 µM; that for `O=C(Nc1ccc2c(c1)CNC2)c1cccc2[nH]c(C(F)(F)F)cc12`, 31.8 µM.

The compound `NCc1cccc(NC(=O)c2cc(Cl)cc(NC(=O)OCc3ccccc3)c2)c1` returned an IC50 of 26.8 µM. The result for `O=C(Nc1ccc2c(c1)CNC2)c1cc(Cl)cc2c1CCC2` reads over 99.5 µM; that for `N[C@H]1CC[C@H](c2ccc(NC(=O)c3cc(Cl)cc(NC(=O)OCc4ccccc4)c3)cc2)C1`, 5.84 µM; that for `O=C(Nc1ccc2c(c1)CNC2)c1ccc2[nH]ccc2c1`, over 99.5 µM. The result for `COCCNC(=O)[C@H](Nc1ccc2c(c1)CNC2)c1cc(Cl)cc(C2CC2)c1` reads 63.4 µM. The result for `Cn1cc(CCc2nc3c(C(=O)Nc4ccc5c(c4)CNC5)cc(Cl)cc3[nH]2)cn1` reads 23.7 µM. On to `CCc1cc(C(=O)Nc2cccc(-n3nn[nH]c3=O)c2)sc1-c1ccc(Cl)cc1`, for which the midpoint of inhibition, the IC50, lay at 11.9 µM. Take `NCCc1csc2cc(C(=O)Nc3cc([C@H]4CCOC4)ccn3)ccc12`: the 50% inhibitory concentration (IC50) was over 99.5 µM. The result for `CNC(=O)[C@H](Nc1cccc(CN)c1)c1cc(Cl)cc(NC(=O)OCc2ccccc2)c1` reads over 99.5 µM.

For `Cc1ccc(NC(=O)c2cc(Cl)cc(NC(=O)OCc3ccccc3)c2)cc1CN`, the half-inhibitory concentration (IC50) was 57.7 µM. The result for `CC(C)NC(=O)[C@H](Nc1ccc2c(c1)CNC2)c1cc(Cl)cc2[nH]ncc12` reads 26.2 µM; that for `O=C(Nc1ccc2c(c1)CNC2)c1cc(Cl)cc2nn(-c3ccccc3)nc12`, 4.73 µM; that for `O=C(NCC(F)F)[C@H](Nc1ccc2c(c1)CNC2)c1cc(Cl)cc(C2CC2)c1`, 28.5 µM and > 99.5 µM and 23.8 µM. The result for `Cc1[nH]c2ccccc2c1CN1CCC(c2c[nH]c3ncccc23)CC1` reads over 99.5 µM; that for `CC(C)(C)c1cc(Br)cc(C(=O)Nc2ccc3c(c2)CNC3)c1`, over 99.5 µM. The result for `NCCc1csc2cc(C(=O)Nc3ccc4c(c3)CNC4)ccc12` reads over 99.5 µM; that for `O=C1Cc2c(cccc2C(=O)Nc2ccc3c(c2)CNC3)N1`, 14.2 µM. In turn, `O=C(NCC(F)F)[C@H](Nc1ccc2c(c1)CNC2)c1cc(F)cc2[nH]ncc12` registered an IC50 of 93.7 µM. This IC50 is about 6.6-fold higher than that of the compound before. On to `O=C(Nc1ccc2c(c1)CNC2)c1cc(Cl)cc2[nH]ncc12`, for which the concentration for half-maximal inhibition (IC50) amounted to 13.4 µM. The compound `CNC(=O)[C@H](Nc1cc(Cl)cc(NC(=O)OCc2ccccc2)c1)c1cccc(-c2nn[nH]n2)c1` returned an IC50 of 40.4 µM. The result for `Clc1ccc2[nH]cc(Cc3ccc(-c4nn[nH]n4)cc3)c2c1` reads 44.1 µM; that for `CC(C)c1nnc(-c2nc3c(C(=O)Nc4ccc5c(c4)CNC5)cc(F)cc3[nH]2)s1`, 10.8 µM; that for `O=C(Nc1ccc2c(c1)CNC2)c1cc(F)cc2[nH]ncc12`, 23.4 µM. The result for `CCOCCNC(=O)[C@H](Nc1ccc2c(c1)CNC2)c1cc(Cl)cc2[nH]ncc12` reads over 99.5 µM.

On to `O=C(Nc1ccc2c(c1)CNCC2)c1cc(Cl)cc2[nH]ncc12`, for which the IC50 was 93.9 µM. The result for `CN1Cc2ccc(NC(=O)c3cc(Cl)cc4[nH]ncc34)cc2C1` reads 92.8 µM; that for `O=C(Nc1ccc2c(c1)CNC2)c1cccc(-c2cnco2)c1`, 21.2 µM. The result for `N#Cc1ccc(-c2nc3c(C(=O)Nc4ccc5c(c4)CNC5)cc(F)cc3[nH]2)cc1` reads 1.7 µM; that for `O=C(Nc1cc(Cl)cc(C(=O)Nc2cccc(-n3nn[nH]c3=O)c2)c1)OCc1ccccc1`, 10.5 µM; that for `O=C(Nc1cc(Cl)cc([C@H]2CN(Cc3ccccc3)C[C@@H]2c2cccc(-c3nn[nH]n3)c2)c1)OCc1ccccc1`, 6.03 µM. `O=C1Cc2cc(C(=O)Nc3ccc4c(c3)CNC4)ccc2N1`: the concentration for half-maximal inhibition (IC50) is 7.13 µM and 5.44 µM. The result for `O=C(Nc1ccc2c(c1)CNC2)c1cc(Br)cc2[nH]c(-c3ccccc3)nc12` reads 1.47 µM; that for `O=C(Nc1ccc2c(c1)CNC2)c1cc(F)cc2[nH]c(-c3ccccc3F)nc12`, 3.44 µM. The result for `Cc1c(C(=O)Nc2cc(CCCN)ccn2)cc(C2CC2)n1C` reads 34.5 µM; that for `N#Cc1cc2c(cc1NC(=O)c1cc(F)cc3[nH]ncc13)CNC2`, 5.39 µM. The result for `O=C1Cc2c(cc(F)cc2C(=O)Nc2ccc3c(c2)CNC3)N1` reads 8.59 µM; that for `N=C(N)NCCC[C@H](NC(=O)c1nccs1)C(=O)N[C@@H](CCCCN)C(=O)N[C@@H](C(N)=O)c1ccc(OCc2ccc(C(F)(F)F)cc2)cc1`, 2.22 µM (2×) and 2.34 µM and 1.63 µM and 2.19 µM and 2.45 µM and 1.49 µM; that for `CNC(=O)[C@H](Nc1cc(CN)cc(-c2nn[nH]n2)c1)c1cc(Cl)cc(C2CC2)c1`, over 99.5 µM. `N#C[C@H](Nc1cccc(-c2nn[nH]n2)c1)c1cc(Cl)cc(NC(=O)OCc2ccccc2)c1` came in with a half-inhibitory concentration (IC50) of 9.59 µM. The result for `O=C(Nc1cc(Cl)cc(-c2ccc3[nH]c(C(=O)O)cc3c2)c1)OCc1ccccc1` reads 5 µM.

As to `O=C(Nc1cc2c(cc1Br)CNC2)c1cc(F)cc2[nH]ncc12`, the IC50 is 21.8 µM. On to `O=C(NC1CCOCC1)[C@H](Nc1ccc2c(c1)CNC2)c1cc(Cl)cc(C2CC2)c1`, for which the IC50 was 53.4 µM. The result for `CNC(=O)[C@H](Nc1cc(CN)cc(C(=O)O)c1)c1cc(Cl)cc(C2CC2)c1` reads over 99.5 µM. The result for `O=C(Nc1ccc2c(c1)CNC2)c1cccc2nc(O)ccc12` reads over 99.5 µM; that for `NCc1cccc([C@H]2C[C@@H]2c2cc(Cl)cc(NC(=O)OCc3ccccc3)c2)c1`, 7.85 µM. The result for `Cc1ccccc1-c1nc2c(C(=O)Nc3ccc4c(c3)CNC4)cc(F)cc2[nH]1` reads 2.2 µM; that for `CC(C)NC(=O)[C@H](Nc1ccc2c(c1)CNC2)c1cc(Cl)cc2[nH]c(-c3ccccc3)nc12`, 7.06 µM and 2.21 µM; that for `O=C(Nc1cc(Cl)cc(C(=O)Nc2ccc3c(c2)CNC3)c1)OCc1ccccc1`, 72.5 µM. `O=C(Nc1ccc2c(c1)CNC2)c1cc(F)cc2[nH]c(-c3ccc(F)cc3)nc12` gave an IC50 of 2.96 µM. The result for `O=C(Nc1ccc2c(c1)CNC2)c1cc(Cl)cc2ccncc12` reads 69.8 µM; that for `O=C(Nc1ccc2c(c1)CNC2)c1cccc2cn[nH]c12`, 37.3 µM; that for `O=C(Nc1cc(Cl)cc(C(=O)Nc2ccc3c(c2)CCNC3)c1)OCc1ccccc1`, 24.4 µM. In turn, `Cn1c(=O)[nH]c2c(C(=O)Nc3ccc4c(c3)CNC4)cc(Br)cc21` displayed an IC50 of over 99.5 µM. Consider `O=C(Nc1ccc2c(c1)CNC2)c1cc(Br)cc2ccccc12`, for which the IC50 is over 99.5 µM. The result for `Cc1c(C(=O)Nc2cc(-c3cccnc3)ccn2)cc(C2CC2)n1C` reads 6.22 µM; that for `NCc1csc2cc(C(=O)Nc3ccc4c(c3)CNC4)ccc12`, 9.07 µM; that for `O=C1Cc2c(cc(Br)cc2C(=O)Nc2ccc3c(c2)CNC3)N1`, 17.8 µM. The result for `N#Cc1cccc(-c2nc3c(C(=O)Nc4ccc5c(c4)CNC5)cc(F)cc3[nH]2)c1` reads 2.31 µM; that for `O=C(Nc1cc(Cl)cc(C(=O)Nc2cccc([C@H]3C[C@H]3C(=O)O)c2)c1)OCc1ccccc1`, 22.6 µM. `OCC#C[C@H](Nc1ccc2c(c1)CNC2)c1cc(Cl)cc2[nH]ncc12` came in with an IC50 of 26.2 µM. The IC50 values of the last two compounds are within 1.5-fold of each other. The result for `O=C(Nc1ccc2c(c1)CNC2)c1cc(Cl)cc(C(F)(F)F)n1` reads 10.4 µM; that for `C=CC[C@H](Nc1cc(Cl)cc(NC(=O)OCc2ccccc2)c1)c1cccc(-c2nn[nH]n2)c1`, 6.43 µM. As to `O=C(Nc1cc(Cl)cc([C@H]2C[C@@H]2c2cccc(C3CCNCC3)c2)c1)OCc1ccccc1`, the IC50 was found to be 4.79 µM. The result for `CC(C)CNC(=O)c1cc(Cl)ccc1NS(=O)(=O)c1ccc(Oc2ccccc2Cl)cc1` reads 12.1 µM; that for `NCc1ccc([C@H]2C[C@@H]2c2cc(Cl)cc(NC(=O)OCc3ccccc3)c2)cc1`, 6.85 µM.

In the case of `Clc1cc(CNc2ccc3c(c2)CNC3)c2cn[nH]c2c1`, half-maximal inhibition (IC50) was put at 42.2 µM. The result for `C=CC[C@H]1NCc2cc(N[C@H](C(=O)NC(C)C)c3cc(Cl)cc4[nH]ncc34)ccc21` reads 55.1 µM; that for `C=CC[C@H]1NCc2cc(NC(=O)c3cccc4c3CC(=O)N4)ccc21`, over 99.5 µM; that for `C=CC[C@H]1NCc2cc(NC(=O)c3cc(F)cc4[nH]ncc34)ccc21`, 32.3 µM. Consider `O=C(Nc1cc(Cl)cc([C@H](C#CCO)Nc2cccc(-c3nn[nH]n3)c2)c1)OCc1ccccc1`, for which the IC50 came to 11.9 µM. The result for `Cc1cccc(-c2nc3c(C(=O)Nc4ccc5c(c4)CNC5)cc(Cl)cc3[nH]2)c1O` reads 4.44 µM; that for `N#C[C@H](Nc1ccc2c(c1)CNC2)c1cc(Cl)cc2[nH]ncc12`, over 99.5 µM; that for `CC(C)c1cc(Br)cc(C(=O)Nc2ccc3c(c2)CNC3)c1`, over 99.5 µM. In the case of `NCc1cccc(-c2csc3cc(C(=O)Nc4ccc5c(c4)CNC5)ccc23)c1`, the concentration for half-maximal inhibition (IC50) came out at 29.8 µM. This lies in the double-digit micromolar range. The result for `O=C(Nc1ccc2c(c1)CNC2)c1cc(Cl)cc2cn[nH]c12` reads 41.9 µM. The result for `CC(C)(c1nc2c(C(=O)Nc3ccc4c(c3)CNC4)cc(F)cc2[nH]1)S(C)(=O)=O` reads 13.6 µM; that for `O=C(NC1CCOCC1)[C@H](Nc1ccc2c(c1)CNC2)c1cc(Cl)cc2[nH]ncc12`, 39.5 µM. The result for `CNC(=O)[C@H](Nc1ccc2c(c1)CNC2)c1cc(Cl)cc(C2CC2)c1` reads over 99.5 µM. For `O=C(NCCC1CC1)[C@H](Nc1ccc2c(c1)CNC2)c1cc(Cl)cc(C2CC2)c1`, the half-inhibitory concentration (IC50) is over 99.5 µM.

The values above are taken from ChEMBL document CHEMBL5604065, “ASAP - DENV-3 NS2B-NS3 protease fluorescence dose response” (2024).
